Laboratory results taken from US9987299B2, “Methods of improving RNAi in well-differentiated airway epithelia” (University of Iowa Research Foundation, priority 2014, dated 2018).

Test system: HAE
Assay: DIG-labeled DsiRNA entry and uptake into HAE (confocal imaging)
Assay type: cell-based, human
Conditions: PAF-treated HAE, 1 hour after transduction with Transductin, compared with control HAE
Description: FIG. 2. PAF treatment enhances DsiRNA entry and uptake into cells. […] Blue, nuclei; green, DIG-labeled oligo. The images on the right and the left are from different fields.
The primary human airway epithelia grown at the air-liquid interface were transfected with the DIG-labeled DsiRNA at a concentration of 250 nM after complexing with Transductin. The transfection mixture was left on the apical surface for 1 h. At the end of this period, the cells were fixed in 2% formaldehyde, permeabilized in 0.2% Triton-x-100 and blocked in 1% BSA for 1 h. The cells were then stained with mouse antibody to DIG (Roche Biochemicals, Indianapolis, Ind.) for 1 h, followed by Alexa 488 labeled goat anti-mouse secondary antibody for 1 h, and then Alexa 488 labeled rabbit anti-mouse tertiary antibody (Life Technologies, Carlsbad, Calif.). In some cases an Alexa 564 goat anti-mouse secondary antibody was used. The cells were finally stained with nuclear stain, ToPro 3 for 10 minutes. The filter, containing the cells, was removed from the culture insert by cutting the edges with razor blade, and mounted on a slide with Vectashield (Vector Laboratories Inc, Burlingame, Calif.). The cells were visualized by confocal microscopy (Bio-Rad Radience 2100MP Multiphoton/Confocal Microscope, Bio-Rad, Hercules, Calif.).

platelet activating factor [PAF]
amount of internalized DIG-labeled DsiRNA: substantial increase in the amount of internalized label
